Data published in patent US20240246946A1, “MODULATORS OF TREX1” (Constellation Pharmaceuticals, Inc., priority 2021, published 2024).

What was measured:
full length human TREX1 = target: T1, full length human TREX1 (Homo sapiens, UniProt Q9NSU2); assay: hTREX1 Biochemical Assay (fluorescence, dsDNA substrate degradation); details: biochemical, read-out: hTREX1 IC50
T1 construct: N-terminally His-Tev tagged full length human TREX1; made in house; host or cells: E. coli
T1 sequence (Q9NSU2 1-314): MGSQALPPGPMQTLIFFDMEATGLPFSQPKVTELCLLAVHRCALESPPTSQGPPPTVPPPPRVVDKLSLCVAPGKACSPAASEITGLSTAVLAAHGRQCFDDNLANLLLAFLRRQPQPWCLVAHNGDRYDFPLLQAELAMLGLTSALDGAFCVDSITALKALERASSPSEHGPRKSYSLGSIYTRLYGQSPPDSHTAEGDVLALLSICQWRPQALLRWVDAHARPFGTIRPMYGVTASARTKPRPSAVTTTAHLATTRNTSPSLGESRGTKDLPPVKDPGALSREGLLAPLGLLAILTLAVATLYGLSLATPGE
Protocol: (§1) Degradation of the dsDNA liberates free fluorophore to produce a fluorescent signal. Specifically, 7.5 μL of N-terminally His-Tev tagged full length human TREX1 (expressed in E. coli and purified in house) in reaction buffer (50 mM Tris, 150 mM NaCl, 2 mM DTT, 0.1 mg/mL BSA, 0.01% (w/v) Tween-20, 5 mM MgCl2, pH 7.4) was added to a 384-well Black ProxiPlate Plus (PerkinElmer) which already contained compound (150 nL) at varying concentrations as a 10 point dose-response in DMSO. The plate was incubated at 25° C. for 4 hours. Reactions were initiated by adding 7.5 μL of dsDNA substrate (Strand A: 5′ TEX615/GCT AGG CAG 3′; Strand B: 5′ CTG CCT AGC/IAbRQSp (Integrated DNA Technologies)) in reaction buffer. Final concentrations were 4 pM TREX1, 60 nM dsDNA substrate in reaction buffer with 1.0% DMSO (v/v). After 18 hours at 25° C., reactions were quenched by the addition of 2 μL of 500 mM EDTA.

full length mouse TREX1 = target: T2, full length mouse TREX1 (Mus musculus, UniProt Q91XB0); assay: mTREX1 Biochemical Assay (fluorescence, dsDNA substrate degradation); details: biochemical, read-out: mTREX1 IC50
T2 construct: N-terminally His-Tev tagged full length mouse TREX1; made in house; host or cells: E. coli
T2 sequence (Q91XB0 1-314): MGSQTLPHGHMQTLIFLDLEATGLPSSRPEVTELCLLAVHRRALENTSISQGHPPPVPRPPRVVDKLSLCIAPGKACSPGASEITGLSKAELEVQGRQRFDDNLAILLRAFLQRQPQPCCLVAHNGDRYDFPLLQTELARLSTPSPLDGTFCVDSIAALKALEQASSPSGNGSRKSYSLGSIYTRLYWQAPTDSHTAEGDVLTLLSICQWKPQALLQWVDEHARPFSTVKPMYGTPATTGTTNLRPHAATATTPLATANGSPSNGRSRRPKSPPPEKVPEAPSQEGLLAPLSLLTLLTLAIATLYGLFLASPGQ
Protocol: as §1, with “length mouse” for “length human”, “were 6” for “were 4”

Structure (SMILES)	IC50 (full length human TREX1)	IC50 (full length mouse TREX1)
CCn1cc(C(c2ccc(F)cc2C#N)C(C)c2nc(C(=O)Nc3cnoc3)c(O)c(=O)n2C)cn1 (single isomer, unassigned) [Example 16 D2E2]	> 10 nM	> 10 nM
CCn1cc(C(c2cc(F)ccc2C#N)C(C)c2nc(C(=O)Nc3cnoc3)c(O)c(=O)n2C)cn1 (single isomer, unassigned) [Example 17 D1E1]	> 10 nM	> 10 nM
CCn1cc(C(c2cc(F)ccc2C#N)C(C)c2nc(C(=O)Nc3cnoc3)c(O)c(=O)n2C)cn1 (single isomer, unassigned) [Example 17 D2E2]	> 10 nM	> 10 nM
COCCn1cc(C(c2cc(F)ccc2C#N)C(C)c2nc(C(=O)Nc3cnoc3)c(O)c(=O)n2C)cn1 (single isomer, unassigned) [Example 18 D1E1]	> 10 nM	> 10 nM
COCCn1cc(C(c2cc(F)ccc2C#N)C(C)c2nc(C(=O)Nc3cnoc3)c(O)c(=O)n2C)cn1 (single isomer, unassigned) [Example 18 D2E1]	> 10 nM	> 10 nM
COCCn1cc(C(c2cc(F)ccc2C#N)C(C)c2nc(C(=O)Nc3cnoc3)c(O)c(=O)n2C)cn1 (single isomer, unassigned) [Example 18 D2E2]	> 10 nM	> 10 nM
CC(c1nc(C(=O)Nc2cnoc2)c(O)c(=O)n1C)C(c1cnn(C)c1)c1c(C#N)cccc1C#N (single isomer, unassigned) [Example 19 D1E1]	> 10 nM	> 10 nM
CC(c1nc(C(=O)Nc2cnoc2)c(O)c(=O)n1C)C(c1cnn(C)c1)c1c(C#N)cccc1C#N (single isomer, unassigned) [Example 19 D2E1]	> 10 nM	> 10 nM
CC(c1nc(C(=O)Nc2cnoc2)c(O)c(=O)n1C)C(c1cnn(C)c1)c1c(C#N)cccc1C#N (single isomer, unassigned) [Example 19 D2E2]	> 10 nM	> 10 nM
CC(c1nc(C(=O)Nc2cnoc2)c(O)c(=O)n1C)C(c1cnn(CCN2CCOCC2)c1)c1ccccc1C#N (single isomer, unassigned) [Example 20 D1E2]	> 10 nM	> 10 nM
CC(c1nc(C(=O)Nc2cnoc2)c(O)c(=O)n1C)C(c1cnn(CCN2CCOCC2)c1)c1ccccc1C#N (single isomer, unassigned) [Example 20 D2E2]	> 10 nM	> 10 nM
CC(c1nc(C(=O)Nc2cnoc2)c(O)c(=O)n1C)C(c1cnn(CCN2CCN(C(=O)OC(C)(C)C)CC2)c1)c1ccccc1C#N (single isomer, unassigned) [Example 21 D1E2]	> 10 nM	> 10 nM
CC(c1nc(C(=O)Nc2cnoc2)c(O)c(=O)n1C)C(c1cnn(CCN2CCN(C(=O)OC(C)(C)C)CC2)c1)c1ccccc1C#N (single isomer, unassigned) [Example 21 D2E2]	> 10 nM	> 10 nM
CC(c1nc(C(=O)Nc2cnoc2)c(O)c(=O)n1C)C(c1cnn(CC(F)(F)F)c1)c1ccccc1C#N (single isomer, unassigned) [Example 22 D1E2]	> 10 nM	> 10 nM
CC(c1nc(C(=O)Nc2cnoc2)c(O)c(=O)n1C)C(c1cnn(CC(F)(F)F)c1)c1ccccc1C#N (single isomer, unassigned) [Example 22 D2E2]	> 10 nM	> 10 nM
CC(c1nc(C(=O)Nc2cnoc2)c(O)c(=O)n1C)C(c1cnn(CC2CC2)c1)c1ccccc1C#N (single isomer, unassigned) [Example 23 D1E1]	> 10 nM	> 10 nM
CC(c1nc(C(=O)Nc2cnoc2)c(O)c(=O)n1C)C(c1cnn(CC2CC2)c1)c1ccccc1C#N (single isomer, unassigned) [Example 23 D2E1]	> 10 nM	> 10 nM

Structure (SMILES)	IC50 (full length human TREX1)	IC50 (full length mouse TREX1)
CC(c1nc(C(=O)Nc2cnoc2)c(O)c(=O)n1C)C(c1cnn(CC2CC2)c1)c1ccccc1C#N (single isomer, unassigned) [Example 23 D2E2]	> 10 nM	> 10 nM
COCCCn1cc(C(c2ccccc2C#N)C(C)c2nc(C(=O)Nc3cnoc3)c(O)c(=O)n2C)cn1 (single isomer, unassigned) [Example 24 D1E2]	> 10 nM	> 10 nM
COCCCn1cc(C(c2ccccc2C#N)C(C)c2nc(C(=O)Nc3cnoc3)c(O)c(=O)n2C)cn1 (single isomer, unassigned) [Example 24 D2E1]	> 10 nM	> 10 nM
COCCCn1cc(C(c2ccccc2C#N)C(C)c2nc(C(=O)Nc3cnoc3)c(O)c(=O)n2C)cn1 (single isomer, unassigned) [Example 24 D2E2]	> 10 nM	> 10 nM
CC(c1nc(C(=O)Nc2cnoc2)c(O)c(=O)n1C)C(c1cnn(C)c1)c1cc(F)c(F)cc1C#N (single isomer, unassigned) [Example 25 D1E2]	> 10 nM	> 10 nM
CC(c1nc(C(=O)Nc2cnoc2)c(O)c(=O)n1C)C(c1cnn(C)c1)c1cc(F)c(F)cc1C#N (single isomer, unassigned) [Example 25 D2E1]	> 10 nM	> 10 nM
CC(c1nc(C(=O)Nc2cnoc2)c(O)c(=O)n1C)C(c1cnn(C)c1)c1cc(F)c(F)cc1C#N (single isomer, unassigned) [Example 25 D2E2]	> 10 nM	> 10 nM
CC(c1nc(C(=O)Nc2cnoc2)c(O)c(=O)n1C)C(c1cnn(C)c1)c1cc(Cl)ccc1C#N (single isomer, unassigned) [Example 26 D1E1]	> 10 nM	> 10 nM
CC(c1nc(C(=O)Nc2cnoc2)c(O)c(=O)n1C)C(c1cnn(C)c1)c1cc(Cl)ccc1C#N (single isomer, unassigned) [Example 26 D2E2]	> 10 nM	> 10 nM
CC(c1nc(C(=O)Nc2cnoc2)c(O)c(=O)n1C)C(c1cnn(C)c1)c1ccc(Cl)cc1C#N (single isomer, unassigned) [Example 27 D2E1]	> 10 nM	> 10 nM
CC(c1nc(C(=O)Nc2cnoc2)c(O)c(=O)n1C)C(c1cnn(C)c1)c1ccc(Cl)cc1C#N (single isomer, unassigned) [Example 27 D2E2]	> 10 nM	> 10 nM
CC(c1nc(C(=O)Nc2cnoc2)c(O)c(=O)n1C)C(c1cnn(C)c1)c1cc(F)c(F)cc1Cl (single isomer, unassigned) [Example 28 D1E2]	> 10 nM	> 10 nM
CC(c1nc(C(=O)Nc2cnoc2)c(O)c(=O)n1C)C(c1cnn(C)c1)c1cc(F)c(F)cc1Cl (single isomer, unassigned) [Example 28 D2E1]	> 10 nM	> 10 nM
CC(c1nc(C(=O)Nc2cnoc2)c(O)c(=O)n1C)C(c1cnn(C)c1)c1cc(F)c(F)cc1Cl (single isomer, unassigned) [Example 28 D2E2]	> 10 nM	> 10 nM
CC(c1nc(C(=O)Nc2cnoc2)c(O)c(=O)n1C)C(c1cnn(C)c1)c1cc(C(F)(F)F)ccc1C#N (single isomer, unassigned) [Example 29 D1E2]	> 10 nM	> 10 nM
CC(c1nc(C(=O)Nc2cnoc2)c(O)c(=O)n1C)C(c1cnn(C)c1)c1cc(C(F)(F)F)ccc1C#N (single isomer, unassigned) [Example 29 D2E1]	> 10 nM	> 10 nM
CC(c1nc(C(=O)Nc2cnoc2)c(O)c(=O)n1C)C(c1cnn(C)c1)c1cc(C(F)(F)F)ccc1C#N (single isomer, unassigned) [Example 29 D2E2]	> 10 nM	> 10 nM
